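Compound exposure: 48 hours, 5 concentrations, 96-well plates. The concentration for 50% growth inhibition is given as GI50.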 Activity calls are given as the source filed them. Cut-off read from the data, not from the text of the source: active = GI50 up to about 1.1 µM and inactive = higher.
Columns and labels:
Test in all cases: NCI tumour cell line growth inhibition, 48 h
[1] = system: M19-MEL
[2] = system: SNB-19
[3] = system: HOP-18
[4] = system: M14
[5] = system: LOX IMVI
[6] = system: SF-295
[7] = system: XF498
[8] = system: SNB-78
[9] = system: NCI-H226
[10] = system: HCT-15
[11] = system: 786-0
[12] = system: NCI-H460
[13] = system: U-251
[14] = system: UACC-257
[15] = system: ACHN
[16] = system: K562
[17] = system: NCI-H522

Measured: GI50

O=C(CC1(O)C(=O)Nc2c(Cl)ccc(Cl)c21)c1ccc(Cl)cc1Cl (configuration not stated)
30.6 µM: [10]
inactive: [1] 7.16 µM | [2] 32.2 µM | [3] 35.1 µM | [4] 13.2 µM | [5] 14.3 µM | [6] 23.2 µM | [7] 19.8 µM | [8] 41.6 µM | [9] 15.5 µM | [11] 14.2 µM | [12] 20.5 µM | [13] 10 µM | [14] 11.6 µM | [15] 16.6 µM

CC(=O)O[C@H]1CC2C=CC3C(CCC31)O2 (some centres not stated)
> 100 µM: [10]
inactive: [1] > 100 µM | [2] > 100 µM | [3] > 100 µM | [4] > 100 µM | [5] > 100 µM | [7] > 100 µM | [8] > 100 µM | [11] > 100 µM | [12] > 100 µM | [13] > 100 µM | [15] > 100 µM | [16] > 100 µM

N#CC(/C(=N/NC(N)=S)C(=O)Nc1cccc(Cl)c1)c1ccccc1 (configuration not stated)
inactive: [1] > 100 µM | [2] > 100 µM | [17] > 100 µM | [3] > 100 µM | [4] > 100 µM | [6] > 100 µM | [7] > 100 µM | [9] > 100 µM | [11] > 100 µM | [12] > 100 µM | [13] > 100 µM | [14] > 100 µM | [15] > 100 µM | [16] > 100 µM
> 100 µM: [10]

CCCCCCCCc1cc2c(O)c(c1)Cc1cc(CCCCCCCC)cc(c1O)Cc1cc(CCCCCCCC)cc(c1O)Cc1cc(CCCCCCCC)cc(c1O)Cc1cc(CCCCCCCC)cc(c1O)Cc1cc(CCCCCCCC)cc(c1O)C2
inactive: [2] > 100 µM | [3] > 100 µM | [4] > 10 µM | [5] > 100 µM | [6] > 100 µM | [7] > 100 µM | [8] > 100 µM | [11] > 100 µM | [12] > 100 µM | [13] > 100 µM | [14] > 100 µM | [15] > 100 µM | [16] > 100 µM
> 100 µM: [10]

CC(C)C1C(=O)NC(CO)Cc2c[nH]c3c(C(c4c[nH]c5ccccc45)C(O)CO)ccc(c23)N1C (configuration not stated)
inactive: [1] > 100 µM | [2] > 100 µM | [17] > 100 µM | [3] 5.56 µM | [4] > 100 µM | [5] > 100 µM | [6] 37.2 µM | [7] 20 µM | [8] 54.7 µM | [11] 62.8 µM | [12] 5.02 µM | [14] > 100 µM | [15] 41.3 µM | [16] 4.19 µM

O=C1CC[C@@H](NC(=O)Cc2ccccc2)C(=O)N1
inactive: [1] > 100 µM | [2] > 100 µM | [17] > 100 µM | [3] > 100 µM | [4] > 100 µM | [5] > 100 µM | [6] > 100 µM | [7] > 100 µM | [9] > 100 µM | [11] > 100 µM | [12] > 100 µM | [13] > 100 µM | [14] > 100 µM | [15] > 100 µM | [16] > 100 µM

CCc1cccc(C)c1NC(=O)CCc1nnc(SC)o1
inactive: [1] > 100 µM | [2] > 100 µM | [17] > 100 µM | [3] > 100 µM | [4] > 100 µM | [5] > 100 µM | [6] > 100 µM | [7] > 100 µM | [8] > 100 µM | [11] > 100 µM | [12] > 100 µM | [13] > 100 µM | [14] > 100 µM | [15] > 100 µM | [16] > 100 µM
> 100 µM: [10]

Source: ChEMBL document CHEMBL1201862, “PubChem BioAssay data set” (2004)
